Reference: patent US8883812B2, “Piperidinyl pyrimidine amides as Kv7 potassium channel openers” (Pfizer Inc., priority 2010, dated 2014)

What was measured:
[1] = Compound concentrations (exposure) in rat DRF safety study
[2] = Predicted human efficacious concentration; conditions: unbound plasma
Male Wistar Han IGS rats = assay: Safety studies - behavioral observations (rat DRF); conditions: for Rat DRF Dose, Threshold for MCS / Rat DRF Dose, NOEL / Rat DRF Dose, Threshold for SAE: oral gavage, single dose; for Rat DRF Dose, Threshold for MCS: manageable clinical signs; for Rat DRF Dose, NOEL: no observable effect limit; for Rat DRF Dose, Threshold for SAE: serious adverse event; for Rat DRF Dose, Threshold for MCS / Rat DRF Dose, NOEL / Rat DRF Dose, Threshold for SAE / margin with regards to serious adverse events: rat; for margin with regards to serious adverse events: text statement comparing with retigabine
in vivo = conditions: male, Wistar Han IGS (CRL:WI [Han]), rat, po
[3] = read-out: Rat DRF Cmax, Threshold for MCS, oral gavage, at MCS threshold dose
[4] = read-out: Rat DRF Cmax, Threshold for SAE, oral gavage, at SAE threshold dose
[5] = ratio of free brain exposure at the dose to projected human concentration

Structure (SMILES) | Cmax [1, 3] | Cmax [1, 4] | Predicted human Ceff Cp,u [2] | Rat DRF Dose, Threshold for MCS (Male Wistar Han IGS rats) | Rat DRF Dose, NOEL (Male Wistar Han IGS rats) | Rat DRF Dose, Threshold for SAE (Male Wistar Han IGS rats) | margin with regards to serious adverse events (Male Wistar Han IGS rats) | Rat DRF TI (toxicity index), NOEL (Male Wistar Han IGS rats; [5]) | Rat DRF TI (toxicity index), Threshold for MCS (Male Wistar Han IGS rats; [5]) | Rat DRF TI (toxicity index), Threshold for SAE (Male Wistar Han IGS rats; [5]) | Cmax (in vivo) | Cmax ([1]; read-out: Rat DRF Cmax, NOEL, oral gavage, at NOEL dose)
COc1nc(N2CCC(OC)CC2)nc(OC)c1NC(=O)CC(C)(C)C [Example 1, N-(4,6-dimethoxy-2-(4-methoxypiperidin-1-yl)pyrimidin-5-yl)-3,3-dimethylbutanamide] | 99 nM | 866 nM | 13 nM | 10 mg/kg | 3 mg/kg | 100 mg/kg | 69 × | 4.2 | 7.6 | 67 | 54 nM | 
CCOC(=O)Nc1ccc(NCc2ccc(F)cc2)cc1N [Retigabine, N-(2-amino-4-(4-fluorobenzylamino)-phenyl)carbamic acid ethyl ester, reference compound] | 870 to 2390 nM | 2390 nM | 607 nM | 30 to 50 mg/kg | 30 mg/kg | 50 mg/kg | 3.9 × |  |  |  |  | 870 nM
